For 15 compounds, T/C results are on record in PubChem BioAssay AID270 (DTP/NCI, 2004).

In this experiment the test system is BDF1 mice, s.c. Lewis lung carcinoma, T/C %. As to the kind of experiment: NCI In Vivo Anticancer Drug Screen. Data for tumor model Lewis Lung Carcinoma (subcutaneous) in B6D2F1 (BDF1) mice. In short, it runs like this:
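Readout: survival or tumor size, expressed as treated (T) over vehicle control (C). Transplantable tumor implanted in mice; compound given to the treated group.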

The mark [1] stands for this setting: endpoint: mean tumor weight, dose: 50.0 mg/kg/injection, schedule: Q01DX011 (ip), vehicle: saline, higher = larger tumour.
[2] abbreviates: endpoint: median survival time, dose: 50.0 mg/kg/injection, schedule: Q01DX009 (ip), vehicle: Klucel (hydroxypropylcellulose) (HPC), higher = longer survival.
[3] abbreviates: endpoint: median survival time, dose: 100.0 mg/kg/injection, schedule: Q01DX009 (ip), vehicle: Klucel (hydroxypropylcellulose) (HPC), higher = longer survival.

Several values for one entry are separate records, joined by “and”; a condition that tells them apart may be missing. Identical values can stand only once. Records with an inconclusive call do not appear.

Consider `Cn1cnc2c1c(=O)[nH]c(=O)n2C`, for which the T/C under setting [1] was 74 % of control; the T/C (endpoint: mean tumor weight, dose: 100.0 mg/kg/injection, schedule: Q01DX011 (ip), vehicle: saline, higher = larger tumour) is 72 % of control; the T/C (endpoint: mean tumor weight, dose: 200.0 mg/kg/injection, schedule: Q01DX011 (ip), vehicle: saline, higher = larger tumour) is 85 % of control; the T/C (endpoint: mean tumor weight, dose: 400.0 mg/kg/injection, schedule: Q01DX011 (ip), vehicle: saline, higher = larger tumour) was 84 % of control.
`CC(/C=N/N=C(N)N)=N/N=C(N)N`: the T/C is, setting by setting: (endpoint: mean tumor weight, dose: 12.5 mg/kg/injection, schedule: Q01DX011 (ip), vehicle: saline, higher = larger tumour) 96 % of control; (endpoint: mean tumor weight, dose: 25.0 mg/kg/injection, schedule: Q01DX011 (ip), vehicle: saline, higher = larger tumour) 69 % of control; under setting [1], 94 % of control.
As to `Nc1ncc(CNc2ccc(C(=O)NC(CCC(=O)O)C(=O)O)cc2)c(N)n1` (centres undefined), the T/C runs as follows: under setting [2], 94 % of control; under setting [3], 100 % of control; (endpoint: median survival time, dose: 400.0 mg/kg/injection, schedule: Q01DX009 (ip), vehicle: Klucel (hydroxypropylcellulose) (HPC), higher = longer survival) 117 % of control.
`O=C(Nc1ccc2c(c1)Cc1cccc(NC(=O)C(Cl)Cl)c1-2)C(Cl)Cl`: the T/C (endpoint: mean tumor weight, dose: 45.0 mg/kg/injection, schedule: Q01DX011 (ip), vehicle: carboxymethylcellulose (CMC), higher = larger tumour) is 72 % of control.
Take `CC(=O)[C@H]1CC[C@H]2[C@@H]3C[C@H](C)C4=CC(=O)CC[C@]4(C)[C@H]3C(=O)C[C@]12C`: the T/C runs as follows: (endpoint: mean tumor weight (est.), dose: 100.0 mg/kg/injection, schedule: Q01DX009 (ip), vehicle: saline, higher = larger tumour) 65 % of control; (endpoint: mean tumor weight (est.), dose: 200.0 mg/kg/injection, schedule: Q01DX009 (ip), vehicle: saline, higher = larger tumour) 35 % of control; (endpoint: mean tumor weight (est.), dose: 400.0 mg/kg/injection, schedule: Q01DX009 (ip), vehicle: saline, higher = larger tumour) 37 % of control; (endpoint: mean tumor weight (est.), dose: 800.0 mg/kg/injection, schedule: Q01DX009 (ip), vehicle: saline, higher = larger tumour) 60 % of control; (endpoint: median survival time, dose: 100.0 mg/kg/injection, schedule: Q01DX009 (ip), vehicle: saline, higher = longer survival) 103 % of control; (endpoint: median survival time, dose: 200.0 mg/kg/injection, schedule: Q01DX009 (ip), vehicle: saline, higher = longer survival) 110 % of control. Besides, the T/C by setting is: (endpoint: median survival time, dose: 400.0 mg/kg/injection, schedule: Q01DX009 (ip), vehicle: saline, higher = longer survival) 113 % of control; (endpoint: median survival time, dose: 800.0 mg/kg/injection, schedule: Q01DX009 (ip), vehicle: saline, higher = longer survival) 100 % of control.
On to `CC(C)NCC(O)COc1cccc2ccccc12` (centres undefined), for which the T/C reads like this: (endpoint: median survival time, dose: 2.0 mg/kg/injection, schedule: Q01DX009 (ip), vehicle: Klucel (hydroxypropylcellulose) (HPC), higher = longer survival) 95 % of control and 110 % of control; (endpoint: median survival time, dose: 2.0 mg/kg/injection, schedule: Q02DX009 (ip), vehicle: Klucel (hydroxypropylcellulose) (HPC), higher = longer survival) 123 % of control; (endpoint: median survival time, dose: 4.0 mg/kg/injection, schedule: Q02DX009 (ip), vehicle: Klucel (hydroxypropylcellulose) (HPC), higher = longer survival) 95 % of control and 107 % of control; (endpoint: median survival time, dose: 8.0 mg/kg/injection, schedule: Q02DX009 (ip), vehicle: Klucel (hydroxypropylcellulose) (HPC), higher = longer survival) 100 % of control and 108 % of control; (endpoint: median survival time, dose: 16.0 mg/kg/injection, schedule: Q02DX009 (ip), vehicle: Klucel (hydroxypropylcellulose) (HPC), higher = longer survival) 92 % of control and 111 % of control; (endpoint: median survival time, dose: 32.0 mg/kg/injection, schedule: Q02DX009 (ip), vehicle: Klucel (hydroxypropylcellulose) (HPC), higher = longer survival) 90 % of control and 105 % of control. Further, the T/C (endpoint: median survival time, dose: 64.0 mg/kg/injection, schedule: Q02DX009 (ip), vehicle: Klucel (hydroxypropylcellulose) (HPC), higher = longer survival) was 101 % of control and 118 % of control.
In the case of `O=NN(CCCl)C(=O)NC1CSCSC1`, the T/C by setting is: (endpoint: median survival time, dose: 1.56 mg/kg/injection, schedule: Q01DX009 (ip), vehicle: saline with Tween-80, higher = longer survival) 106 % of control; (endpoint: median survival time, dose: 3.12 mg/kg/injection, schedule: Q01DX009 (ip), vehicle: saline with Tween-80, higher = longer survival) 104 % of control; (endpoint: median survival time, dose: 4.7 mg/kg/injection, schedule: Q04DX004 (ip), vehicle: saline with Tween-80, higher = longer survival) 95 % of control; (endpoint: median survival time, dose: 5.0 mg/kg/injection, schedule: Q01DX001 (ip), vehicle: saline with Tween-80, higher = longer survival) 116 % of control; (endpoint: median survival time, dose: 6.25 mg/kg/injection, schedule: Q01DX009 (ip), vehicle: saline with Tween-80, higher = longer survival) 96 % of control; (endpoint: median survival time, dose: 7.0 mg/kg/injection, schedule: Q01DX001 (ip), vehicle: saline with Tween-80, higher = longer survival) 117 % of control. The T/C was 112 % of control (endpoint: median survival time, dose: 11.0 mg/kg/injection, schedule: Q04DX004 (ip), vehicle: saline with Tween-80, higher = longer survival); 109 % of control (endpoint: median survival time, dose: 12.5 mg/kg/injection, schedule: Q01DX009 (ip), vehicle: saline with Tween-80, higher = longer survival); 71 % of control (endpoint: median survival time, dose: 16.5 mg/kg/injection, schedule: Q04DX004 (ip), vehicle: saline with Tween-80, higher = longer survival); 163 % of control (endpoint: median survival time, dose: 23.0 mg/kg/injection, schedule: Q01DX001 (ip), vehicle: saline with Tween-80, higher = longer survival); 97 % of control (endpoint: median tumor weight (est.), dose: 7.3 mg/kg/injection, schedule: Q01DX001 (ip), vehicle: saline with Tween-80, higher = larger tumour); 32 % of control and 40 % of control (endpoint: median tumor weight (est.), dose: 15.0 mg/kg/injection, schedule: Q01DX001 (ip), vehicle: saline with Tween-80, higher = larger tumour). The T/C (endpoint: median tumor weight (est.), dose: 22.0 mg/kg/injection, schedule: Q01DX001 (ip), vehicle: saline with Tween-80, higher = larger tumour) was 8 % of control.
Take `CC1CCC2C(C)C3C(CC4C5CC=C6CC(OC7OC(CO)C(O)C(OC8OC(CO)C(O)C(O)C8O)C7OC7OC(C)C(O)C(O)C7O)CCC6(C)C5CCC43C)N2C1` (centres undefined): the T/C is, setting by setting: (endpoint: mean tumor weight, dose: 54.0 mg/kg/injection, schedule: Q01DX011 (sc), vehicle: steriod suspending solution, higher = larger tumour) 112 % of control; (endpoint: mean tumor weight, dose: 80.0 mg/kg/injection, schedule: Q01DX011 (sc), vehicle: steriod suspending solution, higher = larger tumour) 69 % of control; (endpoint: mean tumor weight, dose: 120.0 mg/kg/injection, schedule: Q01DX011 (sc), vehicle: steriod suspending solution, higher = larger tumour) 76 % of control.
Regarding `C=C(C)C(=O)O[C@H]1CC2=C[C@@H](C[C@@]3(C)O[C@@H]3[C@H]3OC(=O)C(=C)[C@@H]31)OC2=O`, the T/C by setting is: (endpoint: mean tumor weight, dose: 2.0 mg/kg/injection, schedule: Q01DX011 (ip), vehicle: saline, higher = larger tumour) 171 % of control; (endpoint: mean tumor weight, dose: 4.0 mg/kg/injection, schedule: Q01DX011 (ip), vehicle: saline, higher = larger tumour) 118 % of control; (endpoint: mean tumor weight, dose: 8.0 mg/kg/injection, schedule: Q01DX011 (ip), vehicle: saline, higher = larger tumour) 107 % of control.
Turning to `CCCCCC(=O)O[C@]1(C(C)=O)CC[C@H]2[C@@H]3CCC4=CC(=O)CC[C@]4(C)[C@H]3CC[C@@]21C`, the T/C by setting is: (endpoint: mean tumor weight, dose: 375.0 mg/kg/injection, schedule: Q01DX011 (sc), vehicle: steriod suspending solution, higher = larger tumour) 89 % of control and 99 % of control; (endpoint: mean tumor weight, dose: 750.0 mg/kg/injection, schedule: Q01DX011 (sc), vehicle: steriod suspending solution, higher = larger tumour) 91 % of control and 92 % of control.
On to `Oc1cc(N2CC2)c(O)cc1N1CC1`, for which the T/C is 106 % of control (endpoint: median survival time, dose: 0.22 mg/kg/injection, schedule: Q01DX009 (ip), vehicle: saline, higher = longer survival); 105 % of control (endpoint: median survival time, dose: 0.44 mg/kg/injection, schedule: Q01DX009 (ip), vehicle: saline, higher = longer survival); 110 % of control (endpoint: median survival time, dose: 0.68 mg/kg/injection, schedule: Q01DX009 (ip), vehicle: saline, higher = longer survival); 90 % of control (endpoint: median survival time, dose: 1.0 mg/kg/injection, schedule: Q01DX009 (ip), vehicle: saline, higher = longer survival).
As for `O=S(=O)(O)c1cc(O)ccc1O`, the T/C (endpoint: mean tumor weight, dose: 133.0 mg/kg/injection, schedule: Q01DX011 (ip), vehicle: saline, higher = larger tumour) was 66 % of control; the T/C (endpoint: mean tumor weight, dose: 300.0 mg/kg/injection, schedule: Q01DX011 (ip), vehicle: saline, higher = larger tumour) was 99 % of control and 119 % of control; the T/C (endpoint: mean tumor weight, dose: 600.0 mg/kg/injection, schedule: Q01DX011 (ip), vehicle: saline, higher = larger tumour) was 67 % of control.
For the compound `CC(=O)Nc1ccc(Cl)c(Cl)c1`, the T/C runs as follows: under setting [2], 120 % of control and 124 % of control; under setting [3], 106 % of control; (endpoint: median survival time, dose: 200.0 mg/kg/injection, schedule: Q01DX009 (ip), vehicle: Klucel (hydroxypropylcellulose) (HPC), higher = longer survival) 98 % of control.
On to `CCCC(=O)NC1=C(N2CC2)C(=O)C(NC(=O)CCC)=C(N2CC2)C1=O`, for which the T/C is 81 % of control (endpoint: mean tumor weight, dose: 0.8 mg/kg/injection, schedule: Q01DX011 (ip), vehicle: other, higher = larger tumour); 42 % of control (endpoint: mean tumor weight, dose: 1.5 mg/kg/injection, schedule: Q01DX011 (ip), vehicle: other, higher = larger tumour); 28 % of control (endpoint: mean tumor weight, dose: 3.0 mg/kg/injection, schedule: Q01DX011 (ip), vehicle: other, higher = larger tumour).
On to `ClCC[N-]CC[N-]CCCl.ClCC[N-]CC[N-]CCCl.[O-][Cl+3]([O-])([O-])O.[Zn+2]`, for which the T/C runs as follows: (endpoint: median survival time, dose: 5.0 mg/kg/injection, schedule: Q01DX009 (ip), vehicle: saline with Tween-80, higher = longer survival) 101 % of control; (endpoint: median survival time, dose: 10.0 mg/kg/injection, schedule: Q01DX009 (ip), vehicle: saline with Tween-80, higher = longer survival) 101 % of control; (endpoint: median survival time, dose: 20.0 mg/kg/injection, schedule: Q01DX009 (ip), vehicle: saline with Tween-80, higher = longer survival) 105 % of control; (endpoint: median survival time, dose: 40.0 mg/kg/injection, schedule: Q01DX009 (ip), vehicle: saline with Tween-80, higher = longer survival) 99 % of control.
